In PubChem BioAssay AID330 (DTP/NCI, 2004):
Values joined by “and” are separate entries in the source; they are usually repeats but may differ in a detail not shown here. Equal values may be shown once. Toxic doses and inconclusive results are not listed. How the source made its calls: active means survival T/C of 150% or more; inactive means T/C below 125% in these data. Peptide text beside a SMILES is read from it.

System: P388 leukemia ip, CD2F1 mice, survival T/C
Test: NCI In Vivo Anticancer Drug Screen. Data for tumor model P388 Leukemia (intraperitoneal) in CD2F1 (CDF1) mice
Conditions: endpoint: median survival time, higher = longer survival
Method in brief: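 Mice carrying the transplanted tumor received test compound or vehicle. Survival was recorded in each group, and the value is the treated-group measurement divided by that of the vehicle-treated control group.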

[1] = dose: 50.0 mg/kg/injection, schedule: Q01DX009 (ip), vehicle: saline with Tween-80
[2] = dose: 100.0 mg/kg/injection, schedule: Q01DX009 (ip), vehicle: saline with Tween-80
[3] = dose: 25.0 mg/kg/injection, schedule: Q01DX009 (ip), vehicle: Klucel (hydroxypropylcellulose) (HPC)
[4] = dose: 50.0 mg/kg/injection, schedule: Q01DX009 (ip), vehicle: Klucel (hydroxypropylcellulose) (HPC)
[5] = dose: 100.0 mg/kg/injection, schedule: Q01DX009 (ip), vehicle: Klucel (hydroxypropylcellulose) (HPC)
[6] = dose: 6.25 mg/kg/injection, schedule: Q01DX005 (ip), vehicle: saline
[7] = dose: 12.5 mg/kg/injection, schedule: Q01DX005 (ip), vehicle: saline
[8] = dose: 25.0 mg/kg/injection, schedule: Q01DX009 (ip), vehicle: saline with Tween-80
[9] = dose: 200.0 mg/kg/injection, schedule: Q01DX009 (ip), vehicle: saline with Tween-80
[10] = dose: 50.0 mg/kg/injection, schedule: Q01DX005 (ip), vehicle: saline with Tween-80
[11] = dose: 100.0 mg/kg/injection, schedule: Q01DX005 (ip), vehicle: saline with Tween-80
[12] = dose: 200.0 mg/kg/injection, schedule: Q01DX005 (ip), vehicle: saline with Tween-80

Measured: T/C

O=S(=O)(c1ccccc1)N1OC1c1ccccc1 (configuration not stated)
inactive: [1] 100 % of control | dose: 60.0 mg/kg/injection, schedule: Q01DX005 (ip), vehicle: Klucel (hydroxypropylcellulose) (HPC) 104 % of control | [2] 86 % of control | dose: 120.0 mg/kg/injection, schedule: Q01DX005 (ip), vehicle: Klucel (hydroxypropylcellulose) (HPC) 104 % of control | dose: 240.0 mg/kg/injection, schedule: Q01DX005 (ip), vehicle: Klucel (hydroxypropylcellulose) (HPC) 99 % of control

O=C1OC(COCc2ccccc2)C/C1=C\c1ccc2c(c1)OCO2 (configuration not stated)
inactive: dose: 100.0 mg/kg/injection, schedule: Q04DX002 (ip), vehicle: saline with Tween-80 95 % of control | dose: 200.0 mg/kg/injection, schedule: Q04DX002 (ip), vehicle: saline with Tween-80 86 % of control | dose: 400.0 mg/kg/injection, schedule: Q04DX002 (ip), vehicle: saline with Tween-80 86 % of control

COc1ccc(/C=C2\CCc3cc(OC)ccc3C2=O)cc1
inactive: dose: 6.25 mg/kg/injection, schedule: Q01DX009 (ip), vehicle: Klucel (hydroxypropylcellulose) (HPC) 117 % of control | dose: 12.5 mg/kg/injection, schedule: Q01DX009 (ip), vehicle: Klucel (hydroxypropylcellulose) (HPC) 117 % of control | [3] 115 % of control

N#CCCCCCN1CCN(c2cccc(Cl)c2)CC1
inactive: [4] 100 % of control | [5] 100 % of control | dose: 200.0 mg/kg/injection, schedule: Q01DX009 (ip), vehicle: Klucel (hydroxypropylcellulose) (HPC) 96 % of control

Clc1cc(Cl)c(Cl)nn1
inactive: [3] 98 % of control | [4] 94 % of control | [5] 92 % of control

CC1=NNC(=S)NCCCN2CCN(CCCNC(=S)NN=C(C)C=NNC(=S)NCCCN3CCN(CCCNC(=S)NN=C1)CC3)CC2
inactive: dose: 50.0 mg/kg/injection, schedule: Q01DX005 (ip), vehicle: suspension in saline 106 % of control | dose: 100.0 mg/kg/injection, schedule: Q01DX005 (ip), vehicle: suspension in saline 113 % of control | dose: 200.0 mg/kg/injection, schedule: Q01DX005 (ip), vehicle: suspension in saline 106 % of control

CC1=CCC(=O)C=[N+]1Cc1ccccc1
inactive: [6] 114 % of control | [7] 100 % of control

COC(=O)C1(C(C)C)N=C(c2ccccc2)OO1 (configuration not stated)
inactive: [8] 91 % of control | [1] 100 % of control | [2] 104 % of control

N=c1nc(N)nc2c3cc(Br)ccc3nnn12
inactive: dose: 60.0 mg/kg/injection, schedule: Q01DX005 (ip), vehicle: saline with Tween-80 113 % of control | dose: 120.0 mg/kg/injection, schedule: Q01DX005 (ip), vehicle: saline with Tween-80 117 % of control | dose: 240.0 mg/kg/injection, schedule: Q01DX005 (ip), vehicle: saline with Tween-80 108 % of control

COc1ccc2nc3cc(Cl)ccc3c(NCCCN3CCCC3)c2n1
inactive: dose: 12.5 mg/kg/injection, schedule: Q01DX009 (ip), vehicle: water 102 % of control | dose: 25.0 mg/kg/injection, schedule: Q01DX009 (ip), vehicle: water 102 % of control

CN(C)c1ccc2c3c(c(=O)oc2c1)CCC3
inactive: dose: 3.12 mg/kg/injection, schedule: Q01DX009 (ip), vehicle: saline with Tween-80 102 % of control | dose: 6.25 mg/kg/injection, schedule: Q01DX009 (ip), vehicle: saline with Tween-80 112 % of control | dose: 12.5 mg/kg/injection, schedule: Q01DX009 (ip), vehicle: saline with Tween-80 114 % of control and 115 % of control | [8] 107 % of control | [1] 104 % of control and 111 % of control | [9] 94 % of control

COc1ccc(C(=O)Nc2c(O)ccc3ccccc23)cc1OC
inactive: [10] 101 % of control | [11] 97 % of control | [12] 100 % of control

O=C(Nc1ccccc1)/C(Cl)=C(/Cl)C(=O)C(Cl)(Cl)Cl
inactive: dose: 12.5 mg/kg/injection, schedule: Q01DX009 (ip), vehicle: distilled water + Tween-80 103 % of control | dose: 25.0 mg/kg/injection, schedule: Q01DX009 (ip), vehicle: distilled water + Tween-80 103 % of control

CCCCn1c2nc(=O)n(C)c(=O)c-2cc2ccccc21
inactive: [1] 110 % of control and 90 % of control | dose: 66.0 mg/kg/injection, schedule: Q01DX009 (ip), vehicle: saline with Tween-80 103 % of control | [2] 102 % of control | dose: 150.0 mg/kg/injection, schedule: Q01DX009 (ip), vehicle: saline with Tween-80 103 % of control | [9] 120 % of control and 98 % of control

C[Si](C)(C)CC[Si]12OCCN(CCO1)CCO2
inactive: dose: 50.0 mg/kg/injection, schedule: Q01DX005 (ip), vehicle: Klucel (hydroxypropylcellulose) (HPC) 106 % of control | dose: 100.0 mg/kg/injection, schedule: Q01DX005 (ip), vehicle: Klucel (hydroxypropylcellulose) (HPC) 104 % of control | dose: 200.0 mg/kg/injection, schedule: Q01DX005 (ip), vehicle: Klucel (hydroxypropylcellulose) (HPC) 92 % of control

C[N+]1(CCC(=O)c2ccccc2)CCOCC1
inactive: dose: 6.25 mg/kg/injection, schedule: Q01DX009 (ip), vehicle: saline 100 % of control | dose: 12.5 mg/kg/injection, schedule: Q01DX009 (ip), vehicle: saline 103 % of control | dose: 25.0 mg/kg/injection, schedule: Q01DX009 (ip), vehicle: saline 100 % of control | dose: 50.0 mg/kg/injection, schedule: Q01DX009 (ip), vehicle: saline 100 % of control and 97 % of control | dose: 200.0 mg/kg/injection, schedule: Q01DX009 (ip), vehicle: saline 96 % of control

O=C(N/N=C/c1cc(Br)ccc1[O-])c1ccccc1O.O=C(N/N=C/c1cc(Br)ccc1[O-])c1ccccc1O.[Co+2]
inactive: dose: 100.0 mg/kg/injection, schedule: Q04DX002 (ip), vehicle: Klucel (hydroxypropylcellulose) (HPC) 90 % of control | dose: 200.0 mg/kg/injection, schedule: Q04DX002 (ip), vehicle: Klucel (hydroxypropylcellulose) (HPC) 90 % of control

Cc1cccn2c([N+](=O)[O-])cnc12
inactive: [1] 102 % of control | [2] 120 % of control | [9] 113 % of control

NC(=O)CCBr
inactive: [1] 101 % of control | [2] 97 % of control

CN(C)CC(CN(C)C)C(=O)/C=C/c1ccc(OCc2ccccc2)cc1
inactive: [6] 104 % of control | [7] 97 % of control

CC(CN(C)C)C(/C=C/c1ccccc1)=N\NC(=O)c1ccccc1 (configuration not stated)
inactive: dose: 60.0 mg/kg/injection, schedule: Q01DX005 (ip), vehicle: saline 97 % of control | dose: 120.0 mg/kg/injection, schedule: Q01DX005 (ip), vehicle: saline 96 % of control | dose: 240.0 mg/kg/injection, schedule: Q01DX005 (ip), vehicle: saline 97 % of control

O=c1[nH]c(=O)c2cc3cn[nH]c3cc2[nH]1
inactive: [10] 92 % of control | [11] 89 % of control | [12] 101 % of control

CCCSc1nc2c(N)nc(-c3ccccc3)nc2nc1N
inactive: [1] 108 % of control | [2] 105 % of control | [9] 105 % of control

NCCCCC(NC(=O)C(Cc1cnc[nH]1)NC(=O)CN)C(=O)O (stereo not drawn) (H-Gly-His-Lys-OH; configuration not given here)
inactive: dose: 50.0 mg/kg/injection, schedule: Q01DX005 (ip), vehicle: saline 109 % of control | dose: 100.0 mg/kg/injection, schedule: Q01DX005 (ip), vehicle: saline 104 % of control | dose: 200.0 mg/kg/injection, schedule: Q01DX005 (ip), vehicle: saline 100 % of control

CC(/C=N/Nc1ccccc1)=N\N=c1/scc(-c2ccc(Br)cc2)n1-c1ccc(C)cc1
inactive: dose: 100.0 mg/kg/injection, schedule: Q01DX001 (ip), vehicle: saline with Tween-80 88 % of control | dose: 400.0 mg/kg/injection, schedule: Q01DX001 (ip), vehicle: saline with Tween-80 86 % of control
